# pIC50: −log10 of the molar value. Entries after “also recorded” stand apart in the source; their conditions may differ.
# How the values were obtained:
# [1] = tested on: A549 cells; test: WST-1 proliferation analysis, A549; format: cell-based
# Text: (§1) 1.2. Evaluation of the Dose- and Time-Dependent Effect of ACPA to Cancer Cell Proliferation by WST-1 Technique
# [2] = tested on: H1299 cells; test: WST-1 proliferation analysis, H1299; format: cell-based; conditions: all doses, days 1, 2 and 3, p<0.05
# Text: as §1
# [3] = tested on: H358 cells; test: WST-1 proliferation analysis, H358; format: cell-based; conditions: p<0.05
# Text: as §1
# [4] = tested on: H838 cells; test: WST-1 proliferation analysis, H838; format: cell-based; conditions: p<0.05
# Text: as §1
# [5] = tested on: A549 cells; test: Real time impedance-based proliferation analysis, A549; format: cell-based
# Description: (§2) 1.3. Evaluation of the Effect of ACPA against Cancer Cell Proliferation by Real Time Impedance-Based Proliferation Analysis
# (§3) ACPA has been applied between this dose range (10^−9, 10^−10, 10^−11 and 10^−12 M) during the real time impedance-based proliferation analysis. After the cells are seeded when the cell indices reach 1.0, ACPA dose range has been applied. The graph has been normalized from the point where the cell indices reached 1.0 and ACPA application has been carried out at different doses. […] After ACPA has been added at the determined dose range, it has led to reduction in the proliferation of H1299 cells as of the 66th hour.
# [6] = tested on: H1299 cells; test: Real time impedance-based proliferation analysis, H1299; format: cell-based
# Description: as §2, §3
# [7] = tested on: H358 cells; test: Real time impedance-based proliferation analysis, H358; format: cell-based
# [8] = tested on: H838 cells; test: Real time impedance-based proliferation analysis, H838; format: cell-based
# Description: as §2, §3
# [9] = tested on: A549, H1299, H358 and H838 cells; test: Efficient dose range over the 4 non-small cell lung cancer lines (WST-1 and real time impedance-based analysis); conditions: 4 cell lines A549, H1299, H358 and H838
# Description: as §3
# Within the scope of the research, the efficient dose and time of the CB1 receptor agonist ACPA has been calculated using the WST-1 and real time impedance-based proliferation analysis method on the examined 4 different non-small cell lung cancer lines.
# [10] = normalized cell index vs log ACPA concentration, read-out: antiproliferative IC50
# [11] = dose ranges applied, depending on time
compound,measurement,setting,value
"CCCCC/C=C\C/C=C\C/C=C\C/C=C\CCCC(=O)NC1CC1 [ACPA, Arachidonoyl cyclopropylamide]",proliferation vs control group (WST-1 absorbance),"[1]; day 1, doses 10^−12, 10^−11, 10^−10 and 10^−9 M, p<0.05",statistically significantly reduced
same,antiproliferative effect (WST-1),"[1]; second and 3rd days, doses applied",antiproliferative effect was not observed
same,antiproliferative effect (WST-1),[2],significant antiproliferative effect; also recorded: Antiproliferative effect has been observed
same,antiproliferative effect (WST-1),"[3]; 2nd day, all doses",Antiproliferative effect was seen
same,antiproliferative effect (WST-1),"[3]; day 1, doses 10^−10, 10^−8, 10^−7 and 10^−6 M",antiproliferative effect of ACPA was observed
same,proliferation vs control group (WST-1),"[4]; 2nd day, 10^−9 M",antiproliferative effect; also recorded: reduced the proliferation of H838 cells statistically significantly
same,proliferation vs control group (WST-1),"[4]; 3rd day, 10^−9 and 10^−12 M",antiproliferative effect; also recorded: reduced the proliferation of H838 cells statistically significantly
same,proliferation (normalized cell index),[5]; ACPA 10^−9 to 10^−12 M,not exhibited a significant change
same,"efficient dose, effect seen on the 48th hour",[5]; WST-1 and impedance analysis,1.39 pM
same,pIC50,[5]; [10],11.86
same,proliferation in comparison to the control group (impedance),"[6]; 1.39×10^−12 M ACPA (free or released from nanoparticles), 48 and 72nd hours, p<0.05",significant reduction has been observed
same,proliferation (normalized cell index),"[6]; 10^−11 M, as of the 66th hour, p<0.05",significantly reduced the proliferation of cells
same,proliferation (normalized cell index),"[6]; 10^−12, 10^−10 and 10^−9 M, after the 86th hour, p<0.05",significantly reduced the proliferation of cells
same,"efficient dose, effect seen on the 48th hour",[6]; WST-1 and impedance analysis,1.39 pM
same,proliferation (normalized cell index),[6]; [11],reduced the proliferation
same,pIC50,[6]; [10],11.86
same,"efficient dose, effect seen on the 48th hour",[7]; WST-1 and impedance analysis,1.39 pM
same,proliferation (normalized cell index),[7]; [11],reduced the proliferation
same,pIC50,[7]; [10],11.86
same,proliferation in comparison to the control group (impedance),"[8]; 1.39×10^−12 M ACPA, 190th hour, p<0.05",statistically significant reduction
same,proliferation vs control group (normalized cell index),"[8]; ACPA doses, following the 30th hour, p<0.05",significantly reduced the proliferation of cells
same,"efficient dose, effect seen on the 48th hour",[8]; WST-1 and impedance analysis,34.7 pM
same,proliferation (normalized cell index),[8]; [11],reduced the proliferation
same,pIC50,[8]; [10],10.46
same,dose range found to be efficient in WST-1 analysis,[9],10^−12-10^−9 M
